# Experimental data as given in patent publication EP0696280B1, “SUBSTITUTED PYRROLIDIN-3-YL-ALKYL-PIPERIDINES USEFUL AS TACHYKININ ANTAGONISTS” (MERRELL PHARMACEUTICALS INC., priority 1993, dated 1994).
# Structures can show the parent of a compound that is named as a salt. Where two headings read alike, the source gives them in different places.
# Assays:
# NK1 receptor = target: T1, NK1 receptor (Cavia porcellus, UniProt P30547); test: Antagonism of iodinated tachykinin binding to NK1 receptor (125I-Bolton Hunter Lys-3 labeled substance P, guinea pig lung membranes)
# T1 construct: Tissues or cells were homogenized with a Polytron in 15 volumes of 50 mM Tris-HCl buffer; tissue Keystone Biologicals, Cleveland, OH; host or cells: guinea pig lung membranes
# T1 sequence (P30547 whole entry): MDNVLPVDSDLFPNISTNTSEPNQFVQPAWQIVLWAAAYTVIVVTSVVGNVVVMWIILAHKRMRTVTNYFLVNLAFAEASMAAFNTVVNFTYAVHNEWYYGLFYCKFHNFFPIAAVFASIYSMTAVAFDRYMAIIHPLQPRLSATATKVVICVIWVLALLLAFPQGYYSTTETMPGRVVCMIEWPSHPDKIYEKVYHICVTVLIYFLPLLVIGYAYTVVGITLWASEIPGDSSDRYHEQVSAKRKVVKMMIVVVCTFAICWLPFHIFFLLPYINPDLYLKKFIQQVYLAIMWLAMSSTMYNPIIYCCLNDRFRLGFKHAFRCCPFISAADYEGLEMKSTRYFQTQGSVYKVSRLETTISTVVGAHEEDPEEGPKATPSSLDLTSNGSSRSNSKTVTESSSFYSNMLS
# Method: (§1) The NK1 receptor affinity of proposed tachykinin antagonists was devaluated in guinea pig lungs (Keystone Biologicals, Cleveland, OH), affinity for the NK2 receptor evaluated in HSKR-1 cells (which are mouse 3T3 fibroblasts expressing the human jejunal NK2 receptor) and NK-3 receptor affinity was evaluated in freshly collected guinea pig cerebral cortex. Tissues or cells were homogenized with a Polytron in 15 volumes of 50 mM Tris-HCl buffer (pH 7.4, 4°C) and centrifuged. The pellet was resuspended in Tris-HCl buffer and was centrifuged; the pellet was washed twice by resuspension. The final pellet was resuspended at a concentration of 40 mg/ml for tissues (guinea pig lung and cerebral cortex) and 20 mg/ml for cells in incubation buffer and remained at room temperature for at least 15 min prior to use. Receptor binding was initiated by addition of 250 µl membrane preparation in duplicate to 0.1 nM of the following radioligands: ^125I-Bolton Hunter Lys-3 labeled substance P; ^125iodohistidyl-1-neurokinin A; and ^125I-Bolton Hunter labeled Lys-4 eledoisin in a final volume of 500 µl of buffer containing 50 mM Tris-HCl (pH 7.4 at room temperature), 0.1% bovine serum albumin, 2 mM MnCl2, 40 µg/ml bacitracin, 4 µg/ml leupeptin and chymostatin, 1 µM thiorphan and various doses of the putative tachykinin antagonists. Incubations were performed at room temperature for 90 min (NK1 receptor assays) or 2 hr (NK2 and NK3 receptor assays); binding was terminated by addition of 50 mM Tris-HCl buffer (pH 7.4, 4°C) and filtration under vacuum through GF/B filters presoaked with 0.1% polyethyleneimine (NK1 receptor assays) or 0.5% bovine serum albumin (NK2 and NK3 receptor assays). Filter bound radioactivity was quantitated in a gamma counter. Nonspecific binding was defined as binding in the presence of 1 µM substance P, neurokinin A, or eledoisin. Specific binding was calculated by subtracting nonspecific binding from total binding. Competition of iodinated SP, NKA, or eledoisin binding by test compounds or standards was expressed as a percentage of this maximum competition. IC50 values (concentration required to inhibit 50% of receptor binding) were generated for each of the test compounds by nonlinear regression using an iterative curve fitting program (GraphPAD Inplot, San Diego, CA).
# [1] = target: T2, human jejunal NK2 receptor (Homo sapiens, UniProt P21452); test: Antagonism of iodinated tachykinin binding to NK2 receptor (125iodohistidyl-1-neurokinin A, HSKR-1 cell membranes)
# T2 construct: expressed in transfected cells; host or cells: HSKR-1 cells (mouse 3T3 fibroblasts)
# T2 sequence (P21452 1-398): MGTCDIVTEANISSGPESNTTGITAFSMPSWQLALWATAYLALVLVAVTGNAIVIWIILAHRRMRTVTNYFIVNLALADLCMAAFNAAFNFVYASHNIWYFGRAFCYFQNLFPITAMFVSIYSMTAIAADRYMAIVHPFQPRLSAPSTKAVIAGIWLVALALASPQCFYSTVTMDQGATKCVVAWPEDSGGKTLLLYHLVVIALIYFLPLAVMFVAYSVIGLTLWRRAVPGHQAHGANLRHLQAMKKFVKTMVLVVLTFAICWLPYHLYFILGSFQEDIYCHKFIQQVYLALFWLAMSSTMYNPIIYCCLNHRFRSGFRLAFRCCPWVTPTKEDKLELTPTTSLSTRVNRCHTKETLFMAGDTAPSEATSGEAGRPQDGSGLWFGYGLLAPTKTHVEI
# Method: as §1
# NK-3 receptor = target: T3, NK-3 receptor (Cavia porcellus, UniProt P30098); test: Antagonism of iodinated tachykinin binding to NK-3 receptor (125I-Bolton Hunter labeled Lys-4 eledoisin, guinea pig cerebral cortex membranes)
# T3 construct: freshly collected guinea pig cerebral cortex; from tissue; host or cells: guinea pig cerebral cortex membranes
# T3 sequence (P30098 1-440): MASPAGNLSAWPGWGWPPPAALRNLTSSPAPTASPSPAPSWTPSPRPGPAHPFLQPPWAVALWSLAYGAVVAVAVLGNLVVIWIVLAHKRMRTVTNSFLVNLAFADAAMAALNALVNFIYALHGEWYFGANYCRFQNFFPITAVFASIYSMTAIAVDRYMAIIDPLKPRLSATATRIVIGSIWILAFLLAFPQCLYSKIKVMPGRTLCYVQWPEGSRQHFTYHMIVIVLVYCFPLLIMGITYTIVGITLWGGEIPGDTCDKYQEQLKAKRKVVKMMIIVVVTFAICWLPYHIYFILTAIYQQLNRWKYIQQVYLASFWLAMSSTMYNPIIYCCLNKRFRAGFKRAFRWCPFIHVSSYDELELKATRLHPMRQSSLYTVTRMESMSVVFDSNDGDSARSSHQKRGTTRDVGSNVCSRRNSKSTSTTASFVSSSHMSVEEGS
# Method: as §1
# [2] = tested on: NKA-induced respiratory effects; test: Antagonism of NKA aerosol induced respiratory effects in conscious guinea pigs (whole body plethysmography); type: in vivo, guinea pig; conditions: 20 min prior to NKA aerosol (0.05%); for DYSPNEA ONSET: mean and SEM
# Method: (§2) In vivo experiments were performed using male Duncan Hartley guinea pigs (250-350g). Changes in conscious breathing patterns were monitored in four animals simultaneously using modified whole body plethysmography consisting of four small plexiglass boxes each connected to a reference box via Validyne DP 45-16 differential pressure transducers. The 4 boxes were equipped with an air supply line (also used for aerosol delivery) and an exhaust air line. Supply and exhaust lines were of the same length and narrow bore and arose from a common supply chamber and vented to a common exhaust chamber. This system was used to ensure that fluctuations in supply air and atmospheric pressure would remain in phase and be eliminated from the net signal by the differential pressure transducers. The analog pressure signals were digitalized via a Data Translation DT2821 A to D board. Data were collected at a rate of 100 samples/second/animal. Each cycle of pressure change was analyzed using the following parameters: rising and falling slope determined between minimum and maximum pressures, the ratio of rising over falling slope, and the magnitude of the change between initial trough pressure and peak cycle pressure. Using these values (and observing the animals) the pressure cycles were characterized into normal breaths, forced exhalations (apparent by abdominal heaving), significant respiratory events (SREs; usually coughs, less often sneezes or gasps which were characterized by transient, extremely large pressure increases which were distinguishable from noise) and movement/noise with a PCAT 286 running a System V UNIX operating system. Dyspnea was defined as a significant, sustained increase in plethysmograph pressure which was associated with an observable shift to labored breathing in the animal.
# (§3) During the course of a typical experiment in which airway responsiveness to various bronchoconstricting agents was examined, aerosols were delivered for 19 min (0.33 ml/min) using a DeVilbiss Ultraneb 99 ultrasonic nebulizer and animals monitored during this time. Prior to nebulization, 1 min of resting breathing was collected to establish a baseline pressure. […] The vehicle for nebulization of all bronchoconstrictive agents was phosphate buffered saline (pH 7.4) which elicited no respiratory effects itself. Putative tachykinin antagonists were administered either (i.v.) 20 min prior to onset of aerosol exposure or orally 1 hour prior to onset (to guinea pigs after an overnight fast).
# Table 6 illustrates the effects of the compounds of Example 3; Example 20A; and Example 5A on respiratory effects induced by NKA aerosol. […] These effects were dose dependent i.e. the higher the dose of compound, the greater attenuation of NKA-mediated effects. […]
# Compounds were administered 20 min prior to initiation of NKA aerosol (0.05%). Values for each treatment represent the mean and SEM of data from 5-37 animals per dose.
# [3] = tested on: capsaicin-induced respiratory effects; test: Antagonism of capsaicin aerosol induced respiratory effects in conscious guinea pigs (whole body plethysmography); type: in vivo, guinea pig; conditions: for DYSPNEA ONSET / MAXIMUM PRESSURE INCREASE (mmH2O) / SRE NUMBER*: mean and SEM; for SRE NUMBER*: number of coughs/gasps during 19 min exposure
# Method: as §2, §3
# Capsaicin aerosol is known to promote release of the tachykinins SP and NKA from sensory nerves in the airways of guinea pigs which may then act upon NK1 and NK2 receptors, respectively to elicit respiratory effects. […]
# (§4) Values are mean and SEM of data derived from number of animals indicated in parenthesis. Putative tachykinin antagonists were administered intravenously 20 min prior to initiation of capsaicin aerosol (0.001%). *SRE number indicates the number of coughs/gasps which occurred during the 19 min capsaicin exposure period.
# as §4, with “by oral gavage 1 hr” for “intravenously 20 min”
# [4] = guinea pig lungs, mean of several experiments, read-out: NK-1 IC50
# [5] = HSKR-1 cells (mouse 3T3 fibroblasts expressing human jejunal NK2 receptor), mean of several experiments, read-out: NK-2 IC50
# [6] = 1 mg/kg intravenously 20 min prior to capsaicin aerosol (0.001%)
# [7] = 2.5 mg/kg intravenously 20 min prior to capsaicin aerosol (0.001%)
# [8] = 5 mg/kg intravenously 20 min prior to capsaicin aerosol (0.001%)
# [9] = 10 mg/kg intravenously 20 min prior to capsaicin aerosol (0.001%)
compound,measurement,setting,value
"NC(=O)C1(c2ccccc2)CCN(CCC2(c3ccc4ccccc4c3)CCN(C(=O)c3ccccc3)C2)CC1 (racemic) [Example 8, 1-[2-(1-benzoyl-3-napthalen-2-yl-pyrrolidin-3-yl)-ethyl]-4-phenyl-piperidine-4-carboxylic acid amide]",IC50,NK1 receptor; [4],1480 nM
same,IC50,[1]; [5],94 nM
"COc1cc(C(=O)N2CCC(CCN3CCC(C(N)=O)(c4ccccc4)CC3)(c3ccccc3)C2)cc(OC)c1OC (centres unmarked) [Example 22A, 1-[2-[3-phenyl-1-(3,4,5-trimethoxy-benzoyl)-pyrrolidin-3-yl]-ethyl]-4-phenyl-piperidine-4-carboxylic acid amide hydrochloride]",IC50,NK1 receptor,17.4 nM
same,IC50,[1],1190 nM
"COc1ccccc1CC(=O)N1CCC(CCN2CCC(C(N)=O)(c3ccccc3)CC2)(c2ccc(Cl)c(Cl)c2)C1 (centres unmarked) [Example 4, 1-(2-[3-(3,4-dichloro-phenyl)-1-[2-(2-methoxy-phenyl)-acetyl]-pyrrolidin-3-yl]-ethyl)-4-phenyl-piperidine-4-carboxylic acid amide]",IC50,[1]; [5],74 nM
same,IC50,NK-3 receptor,41 nM
NC(=O)C1(c2ccccc2)CCN(CCC2(c3ccc4ccccc4c3)CC(=O)N(Cc3ccccc3)C2)CC1 (racemic) [Example 12],IC50,NK1 receptor; [4],810 nM
same,IC50,[1]; [5],179 nM
COC(=O)CC[C@H](NC(=O)C1(c2ccccc2)CCN(CCC2(c3ccc(Cl)c(Cl)c3)CCN(C(=O)c3ccccc3)C2)CC1)C(=O)OC (some centres unmarked) [Example 6],IC50,NK1 receptor; [4],182 nM
same,IC50,[1],15 nM
"COc1ccccc1C(=O)N1CCC(CCN2CCC(C(N)=O)(c3ccccc3)CC2)(c2ccc(Cl)c(Cl)c2)C1 (centres unmarked) [Example 13, 1-[2-[3-(3,4-dichloro-phenyl)-1-(2-methoxy-benzoyl)-pyrrolidin-3-yl]-ethyl]-4-phenyl-piperidine-4-carboxylic acid amide]",IC50,[1]; [5],14 nM
"COc1ccc(C2(CCN3CCC(C(N)=O)(c4ccccc4)CC3)CCN(C(=O)c3cc(OC)c(OC)c(OC)c3)C2)cc1OC (centres unmarked) [Example 23, 1-[2-[3-(3,4-dimethoxy-phenyl)-1-(3,4,5-trimethoxy-benzoyl)-pyrrolidin-3-yl]-ethyl]-4-phenyl-piperidine-4-carboxylic acid amide]",IC50,NK1 receptor,20 nM
same,IC50,[1]; [5],2680 nM
"COc1cc(C(=O)N2CCC(CCN3CCC(C(N)=O)(c4ccccc4)CC3)(c3ccc(Cl)c(Cl)c3)C2)cc(OC)c1OC.Cl (single isomer, unassigned; (+)) [Example 20A, (+)-1-[2-[3-(3,4-dichloro-phenyl)-1-(3,4,5-trimethoxy-benzoyl)-pyrrolidin-3-yl] -ethyl]-4-phenyl-piperidine-4-carboxylic acid amide hydrochloride]",DYSPNEA INCIDENCE,[2]; 1 mg/kg,100% (10/10)
same,DYSPNEA ONSET,[2]; 1 mg/kg,451 ± 30 s
same,DYSPNEA INCIDENCE,[2]; 5 mg/kg,90% (9/10)
same,DYSPNEA ONSET,[2]; 5 mg/kg,706 ± 82 s
same,DYSPNEA INCIDENCE,[2]; 10 mg/kg,70% (7/10)
same,DYSPNEA ONSET,[2]; 10 mg/kg,829 ± 105 s
same,DYSPNEA INCIDENCE,[3]; [6],77.8% (7/9)
same,DYSPNEA ONSET,[3]; [6],331 ± 22 s
same,MAXIMUM PRESSURE INCREASE (mmH2O),[3]; [6],1.0 ± 0.1 mmH2O
same,SRE NUMBER*,[3]; [6],9.9 ± 2.7
same,DYSPNEA INCIDENCE,[3]; [7],100% (10/10)
same,DYSPNEA ONSET,[3]; [7],426 ± 57 s
same,MAXIMUM PRESSURE INCREASE (mmH2O),[3]; [7],0.6 ± 0.1 mmH2O
same,SRE NUMBER*,[3]; [7],8.3 ± 1.6
same,DYSPNEA INCIDENCE,[3]; [8],44.4% (4/9)
same,DYSPNEA ONSET,[3]; [8],597 ± 186 s
same,MAXIMUM PRESSURE INCREASE (mmH2O),[3]; [8],0.8 ± 0.06 mmH2O
same,SRE NUMBER*,[3]; [8],4.4 ± 1.9
same,DYSPNEA INCIDENCE,[3]; [9],55.6% (5/9)
same,DYSPNEA ONSET,[3]; [9],592 ± 71 s
same,MAXIMUM PRESSURE INCREASE (mmH2O),[3]; [9],0.8 ± 0.1 mmH2O
same,SRE NUMBER*,[3]; [9],3.3 ± 1.1
